In the RepoRT retention time repository (doi:10.1007/s11306-011-0298-z) one finds LC retention time data, which are given here for 79 compounds.

Where a name gives a salt, the structure may show the parent alone.

The nature of the series: RP, Waters ACQUITY UPLC HSS T3, 100 × 2.1 mm, 1.8 µm, 30 °C, 0.3 mL/min, estimated dead time 0.73 min; A: water + 0.1% formic acid, pH 3; B: methanol + 0.1% formic acid, pH 3; gradient (min/%B) 0/0 6/0 56/100 60/100. The note with it: stereoisomer not certain.
Regarding `O=c1cc(-c2ccc(O)c(O)c2)oc2cc(O)cc(O)c12` [luteolin], the LC retention time was 34.7 min.
The result for `O=C(O)C=Cc1cccc(O)c1` [m-coumaric acid] reads 26.2 min; that for `O=C(O)CC(=O)O` [malonic acid], 2.11 min; that for `COc1cc(-c2oc3cc(=O)cc(OC4OC(CO)C(O)C(O)C4O)c-3cc2OC2OC(CO)C(O)C(O)C2O)cc(OC)c1O` (centres undefined) [malvidin-3,5-diglucoside], 20.7 min.
Regarding `COc1cc(-c2oc3cc(=O)cc(O)c-3cc2OC2OC(CO)C(O)C(O)C2O)cc(OC)c1O` (centres undefined) [malvidin-3-galactoside], the LC retention time was 24.2 min.
The result for `OCC(O)C(O)C(O)C(O)CO` (centres undefined) [mannitol] reads 1.38 min.
With `OCC1OC(OCC2OC(O)C(O)C(O)C2O)C(O)C(O)C1O` (centres undefined) [melibiose] the figure was 1.4 min.
With `CCCCCCCCCCCCCCCCCCCC(=O)OC` [methyl arachidate] the figure was 59.2 min; with `CCCCCCCCCCCCCCCCCCCCCC(=O)OC` [methyl behenate], 61.2 min; with `CCCCCCCC(=O)OC` [methyl caprylate], 44.2 min.
Regarding `CCCCCCCC/C=C\CCCCCCCCCC(=O)OC` [methyl cis-11-eicosenoate], the LC retention time was 57.9 min.
`COC(=O)c1cc(O)c(O)c(O)c1` [methyl gallate]: the LC retention time is 18.2 min.
With `CCCCCCCCCCCCCCCCC(=O)OC` [methyl heptadecanoate] the figure was 57.1 min; with `CCC=CCC1C(=O)CCC1CC(=O)OC` (centres undefined) [methyl jasmonate], 38.4 min.
The result for `CCC=CCC=CCC=CCCCCCCCC(=O)OC` [methyl linolenate] reads 54.5 min; that for `CCCCCCCCCCCCCC(=O)OC` [methyl myristate], 54.4 min; that for `CCCCCCCCCCCCCCCCCCC(=O)OC` [methyl nonadecanoate], 58.5 min.
The result for `CCCCCCCCC=CCCCCCCCC(=O)OC` [methyl oleate] reads 56.5 min.
Turning to `CCCCCCCCCCCCCCCC(=O)OC` [methyl palmitate], the LC retention time is 56.4 min.
The result for `CCCCCCC=CCCCCCCCC(=O)OC` [methyl palmitoleate] reads 54.9 min; that for `CCCCCCCCCCCCCCCCCC(=O)OC` [methyl stearate], 57.8 min; that for `COC(=O)CCS` [methyl-3-mercaptoproprionate], 33.8 min.
The result for `COC1OC(C(=O)O)C(O)C(O)C1O` (centres undefined) [methyl-glucuronide] reads 2.4 min; that for `COc1cc(-c2oc3cc(=O)cc4oc(C)cc(c2OC2OC(CO)C(O)C(O)C2O)c43)cc(OC)c1O` (centres undefined) [methylpyrano malvidin 3-glucoside], 28.6 min; that for `COC(=O)c1ccccc1O` [methylsalicylate ester], 34.5 min.
Take `O=c1c(O)c(-c2ccc(O)cc2O)oc2cc(O)cc(O)c12` [morin]: the LC retention time is 31.9 min.
Consider `C1COCCN1` [morpholine], for which the LC retention time was 1.4 min.
With `O=C(O)C(O)C(O)C(O)C(O)C(=O)O` (centres undefined) [mucic acid] the figure was 1.3 min; with `OC1C(O)C(O)C(O)C(O)C1O` (centres undefined) [myo-inositol], 1.22 min.
On to `CCCCCCC(=O)O` [n-heptanoic acid], for which the LC retention time is 36.1 min.
As for `O=C1CC(c2ccc(O)cc2)Oc2cc(OC3OC(CO)C(O)C(O)C3O)cc(O)c21` (centres undefined) [naringenin 7-glucoside], the LC retention time was 27.9 min.
The result for `O=C1CC(c2ccc(O)cc2)Oc2cc(O)cc(O)c21` (centres undefined) [naringenin] reads 33.8 min; that for `CC1OC(OC2C(Oc3cc(O)c4c(c3)OC(c3ccc(O)cc3)CC4=O)OC(CO)C(O)C2O)C(O)C(O)C1O` (centres undefined) [naringin], 28.6 min; that for `NC(=O)c1cccnc1` [nicotinamide], 3.79 min.
`CN1CCCC1c1cccnc1` (centres undefined) [nicotine]: the LC retention time is 4.64 min.
The result for `Nc1ncnc2c1ncn2C1OC(COP(=O)(O)OP(=O)(O)OCC2OC([n+]3cccc(C(=O)O)c3)C(O)C2O)C(O)C1O` (centres undefined) [nicotinic acid adenin dinucleotide] reads 8.3 min; that for `O=C(O)c1ccc[n+](C2OC(COP(=O)([O-])O)C(O)C2O)c1` (centres undefined) [nicotinic acid mononucleotide], 2.1 min.
With `O=C(O)c1cccnc1` [nicotinic acid] the figure was 2.98 min.
The result for `CCCCCCCCC(=O)O` [nonanoic acid] reads 43.1 min; that for `O=C(O)C=Cc1ccccc1O` [o-coumaric acid], 28.1 min; that for `CCCCCCCC(=O)O` [octanoic acid], 40 min.
Turning to `CCCCCCCCOC1OC(CO)C(O)C(O)C1O` (centres undefined) [octyl glucopyranoside], the LC retention time is 37.6 min.
For `CCCCCCCCN` [octylamine], the LC retention time is 27.6 min.
As for `CCCCCCCCC=CCCCCCCCC(=O)O` [oleic acid], the LC retention time is 54.9 min.
With `O=c1cc(-c2ccc(O)c(O)c2)oc2c(C3OC(CO)C(O)C(O)C3O)c(O)cc(O)c12` (centres undefined) [orientin] the figure was 25.5 min.
Turning to `O=C(O)C(=O)O` [oxalic acid], the LC retention time was 1.3 min.
The result for `COc1cc(-c2oc3cc(=O)cc4oc(O)cc(c2OC2OC(CO)C(O)C(O)C2O)c43)cc(OC)c1O` (centres undefined) [oxovitisin A] reads 33.2 min.
As to `O=C(O)/C=C/c1ccc(O)cc1` [p-coumaric acid], the LC retention time is 24.3 min.
As to `Oc1ccc(C2c3c(O)cc(O)cc3C3C(c4ccc(O)cc4)c4c(O)cc(O)cc4C23)cc1` (centres undefined) [pallidol], the LC retention time was 25.9 min.
Take `CCCCCCCCCCCCCCCC(=O)O` [palmitic acid]: the LC retention time was 54.4 min.
With `OCC1OC(Oc2cc3c(OC4OC(CO)C(O)C(O)C4O)cc(O)cc3[o+]c2-c2ccc(O)cc2)C(O)C(O)C1O` (centres undefined) [pelargonidin-3,5-diglucoside] the figure was 19.6 min; with `OCC1OC(Oc2cc3c(O)cc(O)cc3[o+]c2-c2ccc(O)cc2)C(O)C(O)C1O` (centres undefined) [pelargonidin-3-glucoside], 23.7 min.
With `O=c1c(OC2OC(COC3OCC(O)C(O)C3O)C(O)C(O)C2O)c(-c2ccc(O)c(O)c2)oc2cc(O)cc(O)c12` (centres undefined) [peltatoside] the figure was 28.3 min.
With `COc1cc(-c2[o+]c3cc(O)cc(OC4OC(CO)C(O)C(O)C4O)c3cc2OC2OC(CO)C(O)C(O)C2O)ccc1O` (centres undefined) [peonidin 3,5 diglucoside] the figure was 20.2 min.
With `COc1cc(-c2[o+]c3cc(O)cc(O)c3cc2OC2OC(CO)C(O)C(O)C2O)ccc1O` (centres undefined) [peonidin 3-galactoside], the LC retention time is 24 min.
With `COc1cc(-c2oc3cc(=O)cc(O)c-3cc2OC2OC(COC(=O)C=Cc3ccc(O)cc3)C(O)C(O)C2O)ccc1O` (centres undefined) [peonidin-3-O-(6-p-coumaroyl)-glucoside] the figure was 33 min.
As for `COc1cc(-c2[o+]c3cc(O)cc(O)c3cc2OC2OCC(O)C(O)C2O)ccc1O` (centres undefined) [peonidin-3-arabinoside], the LC retention time was 24.8 min.
The result for `COc1cc(-c2[o+]c3cc(O)cc(O)c3cc2OC2OC(CO)C(O)C(O)C2O)cc(O)c1O` (centres undefined) [petunidin-3-glucoside] reads 22.9 min.
For `COc1cc(-c2[o+]c3cc(O)cc(O)c3cc2O)cc(O)c1O` [petunidin], the LC retention time was 29.7 min.
The result for `NCCc1ccccc1` [phenethylamine] reads 12.1 min; that for `O=C(CCc1ccc(O)cc1)c1c(O)cc(O)cc1OC1OC(CO)C(O)C(O)C1O` (centres undefined) [phloridzin], 29.6 min.
For the compound `COC1C(O)C(O)C(O)C(O)C1O` (centres undefined) [pinitol], the LC retention time is 1.41 min.
With `O=C(O)C1CNCCN1` (centres undefined) [piperazine carboxylic acid], the LC retention time was 1.19 min.
On to `C1CCNCC1` [piperidine hydrochloride], for which the LC retention time was 2.5 min.
With `O=C(C=CC=Cc1ccc2c(c1)OCO2)N1CCCCC1` [piperine] the figure was 40.7 min.
`O=C(O)c1ccc2c(c1)OCO2` [piperonylic acid]: the LC retention time was 26.7 min.
With `Oc1cc(O)c2c(c1)OC(c1ccc(O)c(O)c1)C(O)C2c1c(O)cc(O)c2c1OC(c1ccc(O)c(O)c1)C(O)C2` (centres undefined) [procyanidin B1] the figure was 18.1 min; with `Oc1cc(O)c2c(c1)OC1(c3ccc(O)c(O)c3)Oc3cc(O)c4c(c3C2C1O)OC(c1ccc(O)c(O)c1)C(O)C4` (centres undefined) [procyanidin-A2], 25.2 min; with `CCCN` [propylamine], 1.5 min.
`O=C(O)c1ccc(O)c(O)c1` [protocatechuic acid]: the LC retention time was 13.9 min.
For `COc1cc(C=Cc2ccc(O)cc2)cc(OC)c1` [pterostilbene], the LC retention time is 41.4 min.
The result for `Cc1ncc(COP(=O)(O)O)c(C=O)c1O` [pyridoxal 5-phosphate] reads 3.99 min.
In the case of `Cc1ncc(CO)c(C=O)c1O` [pyridoxal], the LC retention time was 3.77 min.
The result for `Cc1ncc(COP(=O)(O)O)c(CN)c1O` [pyridoxamine 5-phosphate] reads 1.41 min; that for `Cc1ncc(CO)c(CN)c1O` [pyridoxamine], 1.42 min; that for `Cc1ncc(CO)c(CO)c1O` [pyridoxine], 4.9 min.
With `Oc1ccccc1O` [pyrocatechol] the figure was 13 min; with `C1CCNC1` [pyrrolidine], 1.5 min; with `CC(=O)C(=O)O` [pyruvic acid], 1.79 min.
